From PMC10552471 (ACS Omega, 2023)
Structures can show the parent of a compound that is named as a salt.

Legend:
Format in all cases: biochemical
[1] = biological target: T1, Plasmodium falciparum serine hydroxymethyltransferase (PfSHMT) (Plasmodium falciparum, UniProt Q8I566); assay: MTHFD-coupled enzyme assay at a single concentration; details: read-out: % inhibition at 100 μM
T1 sequence (Q8I566 1-442): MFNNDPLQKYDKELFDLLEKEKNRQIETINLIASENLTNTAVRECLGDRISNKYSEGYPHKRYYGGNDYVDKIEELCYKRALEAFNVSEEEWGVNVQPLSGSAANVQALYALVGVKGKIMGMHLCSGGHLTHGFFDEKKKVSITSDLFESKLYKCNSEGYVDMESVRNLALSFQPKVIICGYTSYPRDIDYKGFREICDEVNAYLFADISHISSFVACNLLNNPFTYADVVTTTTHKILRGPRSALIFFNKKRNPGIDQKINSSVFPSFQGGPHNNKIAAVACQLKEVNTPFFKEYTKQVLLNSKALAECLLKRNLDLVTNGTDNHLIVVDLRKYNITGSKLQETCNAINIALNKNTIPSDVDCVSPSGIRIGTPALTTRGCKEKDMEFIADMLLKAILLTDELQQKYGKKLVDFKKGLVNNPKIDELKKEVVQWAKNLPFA

[2] = biological target: T1, Plasmodium falciparum serine hydroxymethyltransferase (PfSHMT); assay: MTHFD-coupled enzyme assay, […], […] to […] h incubation; details: read-out: % inhibition at 100 μM
[3] = biological target: T1, Plasmodium falciparum serine hydroxymethyltransferase (PfSHMT)

CC(C)[C@@]1(NC(=O)[C@@H]2C[C@@H]3c4cccc5[nH]cc(c45)C[C@H]3N(C)C2)O[C@@]2(O)[C@@H]3CCCN3C(=O)[C@H](Cc3ccccc3)N2C1=O [dihydroergocristine mesylate]
inhibition at 100 µM [1]: 20 to 50%

CO[C@H]1/C=C/O[C@@]2(C)Oc3c(C)c(O)c4c(c3C2=O)C2=NC3(CCN(CC(C)C)CC3)NC2=C(NC(=O)/C(C)=C\C=C\[C@H](C)[C@H](O)[C@@H](C)[C@@H](O)[C@@H](C)[C@H](OC(C)=O)[C@@H]1C)C4=O [rifabutin]
inhibition at 100 µM [1]: 20 to 50%

CO[C@H]1/C=C/O[C@@]2(C)Oc3c(C)c(O)c4c(O)c(c5c(nc6cc(C)ccn65)c4c3C2=O)NC(=O)/C(C)=C\C=C\[C@H](C)[C@H](O)[C@@H](C)[C@@H](O)[C@@H](C)[C@H](OC(C)=O)[C@@H]1C [rifaximin]
inhibition at 100 µM [2]: ~60%

C[C@@H]1[C@H](O)[C@@H](C)/C=C/C=C/C=C/C=C/C=C/C=C/C=C/[C@H](O[C@@H]2O[C@H](C)[C@@H](O)[C@H](N)[C@@H]2O)C[C@@H]2O[C@](O)(C[C@@H](O)C[C@@H](O)[C@H](O)CC[C@@H](O)C[C@@H](O)CC(=O)O[C@H]1C)C[C@H](O)[C@H]2C(=O)O [amphotericin B]
IC50 [3]: 106 ± 1 µM
